# Assay results published in patent publication US12723063B2, “GIPR-agonist compounds” (Eli Lilly and Company, priority 2019, dated 2026).
# *1 amine or outer side, *2 acyl side, *3 side chain or, on linkers, in order; H or OH if unused. Where a SMILES comes first, the peptide text is derived from it. Side-chain parts run from the residue outwards. [ ]: non-standard residue; d: D form. The star is where a group is joined. C20 diacid = O=C(O)CCCCCCCCCCCCCCCCCCC(=O)*; γGlu = O=C(O)[C@H](CCC(=O)[*:2])N[*:1]; αMeL = CC(C)C[C@](C)(N)C(=O)O; AEEA = NCCOCCOCC(=O)O; Aib = CC(C)(N)C(=O)O
# What was measured:
# [1] = system: CD4+ T cells (CD8+ T cell-depleted PBMCs); test: CD4+ T cell proliferation assay (immunogenicity assessment); type: cell-based, human; conditions: 0.33 μM, 7 days
# Description: Protein therapeutics that induce less than 30% positive response in the CD4+ T cell proliferation assay are associated with a low risk of immunogenicity. Briefly, to assess the propensity for a clinical immunogenic response to the compounds of Examples 1, 2, 3, 5, and 6, CD8+ T cell-depleted peripheral blood mononuclear cells (PBMCs) are prepared and labeled with carboxyfluorescein diacetate succinimidyl ester (CFSE; Invitrogen) from a cohort of 10 healthy donors with diverse human leukocyte antigen (HLA) class II haplotypes. Each donor is tested in triplicate with 2.0 mL media control, keyhole limpet hemocyanin (KLH: 0.33 μM), and the compounds of Examples 1, 2, 3, 5, and 6 (0.33 μM). Cultures are incubated for 7 days at 37° C. with 5% CO2. On day 7, samples are analyzed by flow cytometry using a BD LSR II Fortessa (Becton Dickinson; Franklin Lakes, NJ), equipped with a high throughput sampler (HTS). Data is analyzed using FlowJo® Software (FlowJo, LLC/TreeStar; Ashland, OR).
# • Cell Division Index (“CDI”): proportion of divided CD4+ T cells to the total number of CD4+ T cells in stimulated versus unstimulated samples.
# [2] = target: T1, human GLP-1 receptor (GLP-1R) (Homo sapiens, UniProt P43220); test: cAMP functional assay (HTRF) in HEK293 cells in presence of 0.1% casein; type: cell-based; conditions: HEK293 cells expressing human GLP-1R, geometric mean, read-out: hGLP1R cAMP Rel EC50 nM (SEM, n)
# T1 construct: expressed in transfected cells; host or cells: HEK293
# Description: (§1) Each receptor over-expressing cell line (20 μl) is treated with the test peptide in DMEM (Gibco Cat #31053) supplemented with 0.1% Casein (Sigma Cat #C4765), 250 μM IBMX, 1× GlutaMAX™ (Gibco Cat #35050), and 20 mM HEPES (HyClone Cat #SH30237.01) in a 20 μl assay volume. After incubating for 60 minutes at room temperature, the resulting increase in intracellular CAMP is quantitatively determined using the CisBio CAMP Dynamic 2 HTRF Assay Kit (62AM4PEJ). The Lysis buffer containing cAMP-d2 conjugate (20 μl) and the antibody anti-cAMP-Eu3+-Cryptate (20 μl) are then added to determine the cAMP level. After incubating 60 minutes at room temperature, HTRF signal is detected with an Envision 2104 plate reader (PerkinElmer). Fluorescent emission at 620 nm and at 665 nm is measured and the ratio between 620 nm and at 665 nm is calculated and then are converted to nM cAMP per well using a cAMP standard curve. Dose response curves of compounds are plotted as the percentage of stimulation normalized to minimum (buffer only) and maximum (maximum concentration of each control ligand) values and analyzed using a four parameter non-linear regression fit with a variable slope (Genedata Screener 13). EC50 is the concentration of compound causing half-maximal simulation in a dose response curve. A relative EC50 value is derived by non-linear regression analysis using the percent maximal response vs, the concentration of peptide added, fitted to a four-parameter logistic equation.
# (§2) Intracellular cAMP levels are determined by extrapolation using a standard curve. Dose response curves of compounds are plotted as the percentage of stimulation normalized to minimum (buffer only) and maximum (maximum concentration of each control ligand) values and analyzed using a four-parameter non-linear regression fit with a variable slope (Genedata Screener 13). EC50 is the concentration of compound causing half-maximal simulation in a dose response curve. Each relative EC50 value for the geometric mean calculation is determined from a curve fitting.
# (§3) Concentration response curves of compounds are plotted as the percentage of stimulation normalized to minimum (buffer only) and maximum (maximum concentration of each control ligand) values and analyzed using a four-parameter non-linear regression fit with a variable slope (Genedata Screener 13). EC50 is the concentration of compound causing half-maximal simulation in a dose response curve. […] The standard error of the mean is reported:
# (§4) [formula] • The log transform accounts for the EC50 values falling on a multiplicative, rather than an arithmetic scale.
# (§5) For illustration, as shown by Example 1, the peptide is tested in 8 runs of the hGIPR CAMP assay. […] Accordingly, each Example will use the geometric mean of those values to normalize the Example assay runs.
# [3] = target: T2, human glucagon receptor (GcgR) (Homo sapiens, UniProt P47871); test: as above; type: cell-based; conditions: HEK293 cells expressing human GcgR, geometric mean, read-out: hGcgR cAMP Rel EC50 nM (SEM, n)
# T2 construct: expressed in transfected cells; host or cells: HEK293
# Description: as §1, §2, §3, §4, §5
# [4] = target: T3, human glucose-dependent insulinotropic peptide receptor (GIPR) (Homo sapiens, UniProt P48546); test: as above; type: cell-based; conditions: HEK293 cells expressing human GIPR, geometric mean, read-out: hGIPR cAMP Rel EC50 nM (SEM, n)
# T3 construct: expressed in transfected cells; host or cells: HEK293
# T3 sequence (P48546 22-466): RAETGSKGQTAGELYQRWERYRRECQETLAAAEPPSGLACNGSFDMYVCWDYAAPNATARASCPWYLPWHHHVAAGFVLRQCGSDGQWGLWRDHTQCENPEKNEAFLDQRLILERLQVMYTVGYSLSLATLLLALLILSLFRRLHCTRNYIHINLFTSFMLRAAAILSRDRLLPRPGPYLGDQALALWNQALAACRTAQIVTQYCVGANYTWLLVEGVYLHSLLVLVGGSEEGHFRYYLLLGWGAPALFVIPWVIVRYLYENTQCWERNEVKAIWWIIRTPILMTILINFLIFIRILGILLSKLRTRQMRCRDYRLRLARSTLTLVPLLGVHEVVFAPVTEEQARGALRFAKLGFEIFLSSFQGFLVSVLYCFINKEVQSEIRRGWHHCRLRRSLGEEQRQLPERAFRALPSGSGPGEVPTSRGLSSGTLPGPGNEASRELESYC
# Description: as §1, §2, §3, §4, §5
# human GIPR = target: T4, human GIPR (Homo sapiens, UniProt P48546); test: [125I]-GIP binding, SPA with WGA beads, 0.1% bacitracin; conditions: geometric mean, read-out: hGIPR Ki
# T4 construct: expressed in transfected cells; crude membranes
# T4 sequence (P48546 22-466): T3 sequence (P48546 22-466)
# Description: (§6) Stably transfected cell lines are prepared by subcloning receptor cDNA into a pcDNA3 expression plasmid and transfected into human embryonic kidney (HEK) 293 (hGcgR and hGLP-1R) or Chinese Hamster Ovary (CHO) (hGIPR) cells followed by selection with Geneticin (hGLP-1R and hGIPR) or hygromycin B (hGcgR).
# (§7) Two methods are used for the preparation of crude cell membranes.
# (§8) Method 1: Frozen cell pellets are lysed on ice in hypotonic buffer containing 50 mM Tris HCl, pH 7.5, and Roche Complete™ Protease Inhibitors with EDTA. The cell suspension is disrupted using a glass Potter-Elvehjem homogenizer fitted with a Teflon® pestle for 25 strokes. The homogenate is centrifuged at 4° C. at 1100× g for 10 minutes. The supernatant is collected and stored on ice while the pellets are resuspended in homogenization buffer and rehomogenized as described above. The homogenate is centrifuged at 1100× g for 10 minutes. The second supernatant is combined with the first supernatant and centrifuged at 35000× g for 1 hour at 4° C. The resulting membrane pellet is resuspended in homogenization buffer containing protease inhibitors at approximately 1 to 3 mg/mL, quick frozen in liquid nitrogen and stored as aliquots in a −80° C. freezer until use.
# (§9) Method 2: Frozen cell pellets are lysed on ice in hypotonic buffer containing 50 mM Tris HCl, pH 7.5, 1 mM MgCl2, Roche Complete™ EDTA-free Protease Inhibitors and 25 units/mL DNAse I (Invitrogen). The cell suspension is disrupted using a glass Potter-Elvehjem homogenizer fitted with a Teflon® pestle for 20 to 25 strokes. The homogenate is centrifuged at 4° C. at 1800× g for 15 minutes. The supernatant is collected and stored on ice while the pellets are resuspended in homogenization buffer (without DNAse I) and rehomogenized as described above. The homogenate is centrifuged at 1800× g for 15 minutes. The second supernatant is combined with the first supernatant and centrifuged an additional time at 1800× g for 15 minutes. The overall supernatant is then centrifuged at 25000× g for 30 minutes at 4° C. The resulting membrane pellet is resuspended in homogenization buffer (without DNAse I) containing protease inhibitors at approximately 1 to 3 mg/mL and stored as aliquots in a −80° C. freezer until use.
# The binding buffer contains 25 mM HEPES, pH 7.4, 2.5 mM CaCl2), 1 mM MgCl2, 0.1% (w/v) bacitracin, 0.003% (w/v) TWEEN®-20, and Roche Complete™ Protease Inhibitors without EDTA. […] Plates are sealed and mixed on a plate shaker (setting 6) for 1 minute and read with a PerkinElmer Trilux MicroBeta® scintillation counter after 2.5 to 12 hours of incubation/settling time at room temperature.
# (§10) Data are analyzed using four-parameter (curve maximum, curve minimum, IC50, Hill slope) nonlinear regression routines (Genedata Screener, version 12.0.4, Genedata AG, Basal, Switzerland). […] Values for Ki are reported as the geometric mean, with error expressed as the standard error of the mean (SEM) and n is equal to the number of independent replicates (determined in assays performed on different days). […] SEM is only calculated when […] or greater. Means are expressed as geometric means with the standard error of the mean (SEM) and the number of replicates (n) indicated in parentheses.
# human GLP-1R = target: T5, human GLP-1R (Homo sapiens, UniProt P43220); test: [125I]-GLP-1 binding, SPA with WGA beads, 0.1% bacitracin; conditions: geometric mean, read-out: hGLP1R Ki
# T5 construct: expressed in transfected cells; crude membranes
# Description: as §6, §7, §8, §9
# The binding buffer contains 25 mM HEPES, pH 7.4, 2.5 mM CaCl2), 1 mM MgCl2, 0.1% (w/v) bacitracin, 0.003% (w/v) TWEEN®-20, and Roche Complete™ Protease Inhibitors without EDTA.
# as §10
# T1 sequence (P43220 24-463): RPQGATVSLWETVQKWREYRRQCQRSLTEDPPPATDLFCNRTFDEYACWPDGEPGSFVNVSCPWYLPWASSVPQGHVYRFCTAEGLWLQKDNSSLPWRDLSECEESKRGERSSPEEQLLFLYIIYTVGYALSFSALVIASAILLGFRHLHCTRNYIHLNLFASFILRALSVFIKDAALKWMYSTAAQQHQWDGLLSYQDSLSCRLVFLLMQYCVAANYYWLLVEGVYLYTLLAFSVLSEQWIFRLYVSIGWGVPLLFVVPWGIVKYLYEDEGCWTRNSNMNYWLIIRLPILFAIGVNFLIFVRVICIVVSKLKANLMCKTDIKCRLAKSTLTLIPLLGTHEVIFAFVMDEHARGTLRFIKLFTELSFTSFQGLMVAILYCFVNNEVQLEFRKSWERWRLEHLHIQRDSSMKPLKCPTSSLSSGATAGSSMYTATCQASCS
# T2 sequence (P47871 26-477): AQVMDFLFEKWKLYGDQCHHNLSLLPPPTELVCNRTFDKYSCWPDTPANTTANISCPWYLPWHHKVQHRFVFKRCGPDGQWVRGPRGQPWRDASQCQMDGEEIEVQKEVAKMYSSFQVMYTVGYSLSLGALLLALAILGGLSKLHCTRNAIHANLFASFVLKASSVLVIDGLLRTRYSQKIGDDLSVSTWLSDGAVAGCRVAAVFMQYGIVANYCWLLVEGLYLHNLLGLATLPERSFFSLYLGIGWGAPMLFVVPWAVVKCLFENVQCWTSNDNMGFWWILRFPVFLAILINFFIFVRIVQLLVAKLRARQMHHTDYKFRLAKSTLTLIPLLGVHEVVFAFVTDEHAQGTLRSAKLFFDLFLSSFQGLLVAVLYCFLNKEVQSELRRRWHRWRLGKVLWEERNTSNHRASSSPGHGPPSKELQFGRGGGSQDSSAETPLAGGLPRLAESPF
# T5 sequence (P43220 24-463): as the sequence (P43220 24-463) above
Molecule,"% Donor Response (n = 10) ([1]; 10 healthy donors, positive response CDI>2.5) [%]",Median Response Strength in positive donors (CDI) ([1]; Cell Division Index),EC50 [2] [nM],EC50 [3] [nM],EC50 [4] [nM],Ki (human GIPR) [nM],Ki (human GLP-1R) [nM]
"keyhole limpet hemocyanin [KLH, reference compound]",100,164.285 (n = 10),–,–,–,–,–
CC[C@H](C)[C@H](NC(=O)[C@H](Cc1ccccc1)NC(=O)[C@@H](NC(=O)CNC(=O)[C@H](CCC(=O)O)NC(=O)C(C)(C)NC(=O)[C@@H](N)Cc1ccc(O)cc1)[C@@H](C)O)C(=O)N[C@@H](CO)C(=O)N[C@@H](CC(=O)O)C(=O)N[C@@H](Cc1ccc(O)cc1)C(=O)N[C@@H](CO)C(=O)N[C@H](C(=O)N[C@@](C)(CC(C)C)C(=O)N[C@@H](CC(C)C)C(=O)N[C@@H](CC(=O)O)C(=O)N[C@@H](CCCCN)C(=O)N[C@@H](CCCCNC(=O)COCCOCCNC(=O)COCCOCCNC(=O)CC[C@H](NC(=O)CCCCCCCCCCCCCCCCCCC(=O)O)C(=O)O)C(=O)N[C@@H](Cc1c[nH]cn1)C(=O)N[C@@H](CCC(N)=O)C(=O)NC(C)(C)C(=O)N[C@@H](CC(=O)O)C(=O)N[C@@H](Cc1ccccc1)C(=O)N[C@H](C(=O)N[C@@H](CCC(=O)O)C(=O)N[C@@H](Cc1ccc(O)cc1)C(=O)N[C@@H](CC(C)C)C(=O)N[C@@H](CC(C)C)C(=O)N[C@@H](CCC(=O)O)C(=O)N[C@@H](CCC(N)=O)C(=O)NCC(=O)N1CCC[C@H]1C(=O)N[C@@H](CO)C(=O)N[C@@H](CO)C(=O)NCC(=O)N[C@@H](C)C(=O)N1CCC[C@H]1C(=O)N1CCC[C@H]1C(=O)N1CCC[C@H]1C(=O)N[C@@H](CO)C(N)=O)C(C)C)[C@@H](C)CC [Example 67] (H-Y[Aib]EGTFISDYSI[αMeL]LDKK([AEEA-AEEA-γGlu-C20 diacid])HQ[Aib]DFVEYLLEQGPSSGAPPPS-NH2),–,–,> 5000,> 5000,0.0627,–,–
CC[C@H](C)[C@H](NC(=O)[C@H](CCCCN)NC(=O)[C@H](CC(=O)O)NC(=O)[C@H](CC(C)C)NC(=O)[C@](C)(CC(C)C)NC(=O)[C@@H](NC(=O)[C@H](CO)NC(=O)[C@H](Cc1ccc(O)cc1)NC(=O)[C@H](CC(=O)O)NC(=O)[C@H](CO)NC(=O)[C@@H](NC(=O)[C@H](Cc1ccccc1)NC(=O)[C@@H](NC(=O)CNC(=O)[C@H](CCC(=O)O)NC(=O)C(C)(C)NC(=O)[C@@H](N)Cc1ccc(O)cc1)[C@@H](C)O)[C@@H](C)CC)[C@@H](C)CC)C(=O)N[C@@H](CCCNC(=N)N)C(=O)N[C@@H](CCC(N)=O)C(=O)NC(C)(C)C(=O)N[C@@H](CC(=O)O)C(=O)N[C@@H](Cc1ccccc1)C(=O)N[C@H](C(=O)N[C@@H](CCC(=O)O)C(=O)N[C@@H](Cc1ccc(O)cc1)C(=O)N[C@@H](CCCCNC(=O)COCCOCCNC(=O)COCCOCCNC(=O)CC[C@H](NC(=O)CCCCCCCCCCCCCCCCCCC(=O)O)C(=O)O)C(=O)N[C@@H](CC(C)C)C(=O)N[C@@H](CCC(=O)O)C(=O)N[C@@H](C)C(=O)NCC(=O)N1CCC[C@H]1C(=O)N[C@@H](CO)C(=O)N[C@@H](CO)C(=O)NCC(=O)N[C@@H](C)C(=O)N1CCC[C@H]1C(=O)N1CCC[C@H]1C(=O)N1CCC[C@H]1C(=O)N[C@@H](CO)C(N)=O)C(C)C [Example 118] (H-Y[Aib]EGTFISDYSI[αMeL]LDKIRQ[Aib]DFVEYK([AEEA-AEEA-γGlu-C20 diacid])LEAGPSSGAPPPS-NH2),–,–,> 5000,> 5000,0.0611,0.0696,> 920
